For test [1], the system named is RNA biosynthesis in S. carnosus TM300. Briefly: Macromolecular synthesis assay: 3H-uridine incorporation into RNA. The test is classed as cell-based, Staphylococcus carnosus. The note with it: S. carnosus TM300, 2× MIC, three independent experiments. Here is the method: Radiolabel incorporation experiments were carried out similarly as previously described but using S. carnosus ([Wu et al., 2019]). The OD600 of parallel nonradioactive cultures was measured at each time point to normalize the measured radioactivity and minimize effects due to cell death and growth inhibition. The radiolabeled reagents and their corresponding positive and negative antibiotic controls were as follows. […] All experiments were conducted independently three times.
Figure S3. Thre e in de pen den t ex perime nts of incorporation of (A) 14C- acetic acid into fatty acids, (B) 14C- thymi din e into D NA, (C) 3H-uridi ne into RNA, (D) 14C- lab el ed ami no acids into protei n, and (E) 14C- label ed GlcNAc into cell w all in S. carnosus TM300 cells treated with vario u s antimicro bia l agents. T he p ercent i nco rpo ratio n at 0 min was measured after incubati ng the cel l cultur e with 0.8 μCi/mL radioactive precursors for 15 min. Then 0.5x, 1x, 2x, or 4x MIC epilanci n 15X and 2x MIC controls were added to the cell cultur e (t=0), and t he percent incorporation was measur ed ov er time. Positive controls a re gr een and negative controls are black (cells o nly) an d blu e (co mpo und w ith mo d e o f actio n unr elate d to th e a ssay i n que stio n). […]

Test [2] has as its system S. carnosus TM300. Briefly: Membrane potential study with DiOC2 (flow cytometry). The note with it: S. carnosus TM300, 20 min, 0.5x, 1x, 4x MIC, n = 3. The test is classed as cell-based, Staphylococcus carnosus. How it is done: Cultures of S. carnosus TM300 were grown to OD600 1.0 and diluted to OD600 0.1 in fresh BHI medium. The culture was then combined with 30 μM 3,3′-diethyloxacarbocyanine (DiOC2, ThermoFisher D14730) and incubated for 20 min. […] Another two tubes were prepared without antibiotic treatment as controls. The culture was analyzed with a BD Biosciences LSR II flow cytometer using excitation at 488 nm with an argon laser and measurement of emission through a band-pass filter at 616/20 nm. A minimum of 30,000 events were detected for each sample. The experiment was repeated three times, and the mean red/green fluorescence ratio was determined.
For orientation: In flow cytometry, cells or beads pass a laser one at a time.

Test [3] has as its system S. carnosus TM300. Kind of test: Agar diffusion bioactivity assay with lipids in flanking wells. It counts as cell-based, Staphylococcus carnosus. The settings on record: S. carnosus TM300 on BHI agar, overnight. Here is the method: For agar diffusion antimicrobial activity assays, the autoclaved 1.5% agar was prepared in the appropriate medium and cooled in a 40°C water bath for 15 min. A total of 50 μL overnight culture of the sensitive strain was added to the agar and kept in the water bath. A total of 25 mL seeded agar was poured into a sterile OmniTray (Nunc) and allowed to solidify at room temperature for 30 min. An additional 35 mL of seeded agar was poured over the lower solidified agar layer. A sterile 96-well PCR plate was placed in the molten agar upper layer, and the agar was allowed to solidify at 25°C for 30 min. After sufficient solidification, the 96-well PCR plate was removed. Then 20 μL volume of each peptide was dispensed into the wells. Plates were left at 25°C for 30 min until the wells were dried, and the plates were incubated at 37°C overnight. The antibacterial activity was determined by the presence or absence of growth inhibition.
Figure S5. (A) Zones of growt h inhibition of epilancin 15X a nd nisin A against S. carnosus TM30 0 grown on BHI agar plates. The indicated amounts of antibiotics were placed in the well shown in the center of the zone of inhibition. […]
A general note: Agar diffusion results depend on both activity and mobility in agar.

The test system of another test is B. subtilis ATCC 6633. Kind of test: Fluorescence and bright field (Airyscan) microscopy. The test is classed as cell-based, Bacillus subtilis. How it is done: Standard microscope slides coated with poly-D-lysine (R&D Systems, 34–392 − 000101) overnight were washed with water and sterilized in ethanol. Overnight bacterial culture was centrifuged at 4,500 ×g and the pellet was resuspended gently three times in fresh PBS to remove the media background. Then 20 μL of cell culture in PBS and 180 μL of PBS were loaded on each slide and incubated at room temperature for 30 min. Next, 1 mL of PBS was used to wash the slides at least five times to remove unadhered cells. A final concentration of 200 nM epilancin 15X-TAMRA in 200 μL of PBS was applied to each slide and incubated at room temperature for 30 min. PBS was used to wash the slides at least five times to wash away unbound Epilancin 15X. A final concentration of 10% formaldehyde (Thermo Scientific, PI28906) and 2.5% glutaraldehyde (Fisher Chemical, O2957–1) in PBS was applied to each slide and incubated for 30 min. Three times 1 mL of PBS was applied to wash away excess fixing solution. A drop of ProLong Glass Antifade Mountant (Invitrogen, P36982) was applied to each slide, covered with a glass coverslip (Ibidi, NC0601315), and dried overnight protected from light. All micrographs were captured using a Zeiss LSM 880 Airyscan microscope (Carl R. Woese Institute for Genomic Biology, UIUC). […]

Test [4] concerns S. carnosus TM300. Briefly: Killing kinetics (CFU counting). The test is classed as cell-based, Staphylococcus carnosus. The settings on record: S. carnosus TM300, mid-log, 1x and 4x MIC, 30-180 min, triplicate. How it is done:
(§1) S. carnosus TM300 and B. subtilis BSF2470 (1A980) cell cultures were grown to mid-log phase in BHI and LB broth, respectively. […] At each time point, an aliquot of […] treated-culture was serial-diluted and placed on BHI agar plates for S. carnosus and LB agar plates for B. subtilis. The plates were grown for 1 day at 37°C and the colonies were counted. Each experiment was performed in triplicate and untreated cell culture was used as the negative control.

The subject of test [5] is B. subtilis BSF2470 (1A980). Kind of test: Killing kinetics (CFU counting). The test is classed as cell-based, Bacillus subtilis. How it is done:
as §1

The record followed here is PMC10652874, “Investigation into the mechanism of action of the antimicrobial peptide epilancin 15X” (Frontiers in Microbiology, 2023).

On to Epilancin 15X, for which the “RNA biosynthesis (3H-uridine incorporation)” value in test [1] is given as “considerably stronger effect than that observed with the respective negative controls”. Also, the “red/green fluorescence ratio of DiOC2 (membrane potential)” value with S. carnosus TM300 [2] is “increase”. In the test on S. carnosus TM300 [3], the “antagonism of bioactivity (zone of growth inhibition) by purified S. aureus LTA” value is reported as “antagonized”. For the same substance, the “aggregation phenotype of cells (brightfield)” value in the test on B. subtilis ATCC 6633 is “Aggregation and chaining of cells was observed”. Besides, the “number of colony forming units (CFU)” value in the test on S. carnosus TM300 [4] is recorded as “significant decrease”; in test [5] (B. subtilis BSF2470, mid-log, 1x and 4x MIC, 30-180 min, triplicate) it was “significant decrease”. Besides, the “growth (colonies) after treatment” value in test [5] (B. subtilis BSF2470, 4x MIC, 90 and 120 minutes, at the dilution factor plated) is “no growth was observed”.
